The values that follow come from article PMC4815019, “The Terminal Oxidase Cytochrome bd Promotes Sulfide-resistant Bacterial Respiration and Growth” (Scientific Reports, 2016).

Assay [1] has as its target T1, cytochrome bo3 (heme-copper bo3 oxidase) (Escherichia coli, UniProt P0ABI8).
T1 construct: gene cyoB; dodecyl maltoside micelles; with Cytochrome bo(3) ubiquinol oxidase subunit 2; Cytochrome bo(3) ubiquinol oxidase subunit 3; Cytochrome bo(3) ubiquinol oxidase subunit 4
Briefly: O2 consumption, high-resolution respirometry (Oxygraph-2k); Hill fit with n = […]. It is filed as biochemical.

The target in assay [2] is O-acetylserine sulfhydrylase from Entamoeba histolytica (Entamoeba histolytica). Description: SEC; 120-ml Superdex S-200 column, buffer A (50 mM potassium phosphate, 300 mM KCl, pH 7.5, 10% glycerol), 0.7 mL/min.

T1 sequence (P0ABJ3 whole entry): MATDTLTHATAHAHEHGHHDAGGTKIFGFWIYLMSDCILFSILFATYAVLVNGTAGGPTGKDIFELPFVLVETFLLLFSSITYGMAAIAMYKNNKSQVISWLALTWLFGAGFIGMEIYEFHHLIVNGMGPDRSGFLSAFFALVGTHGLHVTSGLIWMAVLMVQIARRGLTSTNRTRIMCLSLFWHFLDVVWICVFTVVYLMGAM
T1 sequence (P0ABI8 whole entry): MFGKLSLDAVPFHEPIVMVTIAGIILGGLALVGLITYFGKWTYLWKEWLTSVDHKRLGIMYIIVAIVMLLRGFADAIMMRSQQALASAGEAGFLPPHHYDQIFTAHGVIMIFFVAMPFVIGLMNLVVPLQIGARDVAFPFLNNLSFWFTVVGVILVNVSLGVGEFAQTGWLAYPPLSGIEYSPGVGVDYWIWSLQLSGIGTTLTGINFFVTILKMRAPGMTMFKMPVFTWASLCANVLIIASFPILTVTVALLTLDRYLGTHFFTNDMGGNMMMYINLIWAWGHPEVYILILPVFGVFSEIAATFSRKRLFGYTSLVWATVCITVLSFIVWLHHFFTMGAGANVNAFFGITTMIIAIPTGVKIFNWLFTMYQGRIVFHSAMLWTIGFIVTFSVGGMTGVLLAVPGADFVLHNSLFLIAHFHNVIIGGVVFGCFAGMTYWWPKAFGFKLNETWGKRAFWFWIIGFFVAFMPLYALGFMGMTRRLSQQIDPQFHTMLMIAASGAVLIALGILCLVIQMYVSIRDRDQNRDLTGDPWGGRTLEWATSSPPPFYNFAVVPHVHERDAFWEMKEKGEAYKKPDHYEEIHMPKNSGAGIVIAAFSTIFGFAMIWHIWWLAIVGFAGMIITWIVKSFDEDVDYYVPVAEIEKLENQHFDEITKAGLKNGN
T1 sequence (P0ABJ1 25-315, further chain): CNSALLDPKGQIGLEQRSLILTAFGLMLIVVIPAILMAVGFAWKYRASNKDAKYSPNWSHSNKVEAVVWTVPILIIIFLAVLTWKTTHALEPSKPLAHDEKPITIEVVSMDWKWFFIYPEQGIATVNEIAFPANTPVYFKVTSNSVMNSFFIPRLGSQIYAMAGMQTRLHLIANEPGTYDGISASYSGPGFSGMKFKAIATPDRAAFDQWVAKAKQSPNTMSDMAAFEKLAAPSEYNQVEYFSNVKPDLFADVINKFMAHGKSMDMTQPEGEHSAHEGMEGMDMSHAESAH
T1 sequence (P0ABJ6 whole entry, further chain): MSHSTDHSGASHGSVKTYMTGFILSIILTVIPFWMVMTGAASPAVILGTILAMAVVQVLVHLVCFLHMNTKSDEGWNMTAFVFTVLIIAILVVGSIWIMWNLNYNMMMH

The molecule `S` [NaHS] yielded a concentration for half-maximal inhibition (IC50) in assay [1] of 1.1 ± 0.1 µM.
In assay [2], “O-acetylserine sulfhydrylase from Entamoeba histolytica (enzyme)” had a stoichiometry N of 2.

Broadly, the IC50 is the midpoint of a concentration-inhibition curve. The low end stands for greater potency, the high end for weaker potency. As a reminder, the stoichiometry N is the number of molecules, sites or subunits per partner or assembly.
